# Results as given in paper PMC2810227, “3-O-Methylfunicone, a Selective Inhibitor of Mammalian Y-Family DNA Polymerases from an Australian Sea Salt Fungal Strain” (Marine Drugs, 2009).
# Read-outs that look alike come from different tables or passages of the source.
# Assays:
# UV-treated HeLa cells = assay: UV-treated clonogenic assay; format: cell-based, human; conditions: 10 J/m^2 UV
# Procedure: Figure 5. (A) Human cancer cell growth inhibition dose-response curves of 3-O-methyl-funicone (1). Various concentrations (0 to 150 μM) of compound 1 were incubated with human colon carcinoma (HCT116) cells (circle) and human cervix carcinoma (HeLa) cells (square) for 24 h. Rate of cell growth was determined by MTT assay as described in the Experimental section. Data are shown as the means ± SEM of five independent experiments. (B) Clonogenic survival of UV-treated HeLa cells by compound 1. Various concentrations (0 to 100 μM) of compound 1 were incubated with 10 J/m^2 UV-treated (closed circle) or untreated (open circle) HeLa cells. After 7 days, the number of colonies in each treatment group was counted. Values are the means ± SEM of two independent experiments.
# For clonogenic assay, 600 cells of HeLa were seeded on 10-cm plates and allowed to grow for 24 h before 10 J/m^2 UV irradiation treatment. The cells were then treated with various concentrations of compound 1 for 24 h. The cells were then washed with PBS and fresh medium was added for an additional 7-day incubation in a humidified 10% CO2 incubator at 37 °C. […] The number of colonies in each treatment group was counted, and the cell survival data were presented as percentage of the colony numbers of treated/untreated cells.
# [1] = tested on: HDF (human dermal fibroblast); assay: Proliferation and growth of normal cells, HDF; format: cell-based; conditions: data not shown
# human pol κ = target: T1, human pol κ (Homo sapiens, UniProt Q9UBT6); assay: Kinetic analysis of the inhibition of human pol κ; format: biochemical; conditions: for Ki: Dixon plot
# T1 construct: A truncated form of pol κ (residues 1–560) with 6 x His-tags attached at the C-terminus; 6xHis (C); made in house; host or cells: E. coli
# T1 sequence (Q9UBT6 1-560): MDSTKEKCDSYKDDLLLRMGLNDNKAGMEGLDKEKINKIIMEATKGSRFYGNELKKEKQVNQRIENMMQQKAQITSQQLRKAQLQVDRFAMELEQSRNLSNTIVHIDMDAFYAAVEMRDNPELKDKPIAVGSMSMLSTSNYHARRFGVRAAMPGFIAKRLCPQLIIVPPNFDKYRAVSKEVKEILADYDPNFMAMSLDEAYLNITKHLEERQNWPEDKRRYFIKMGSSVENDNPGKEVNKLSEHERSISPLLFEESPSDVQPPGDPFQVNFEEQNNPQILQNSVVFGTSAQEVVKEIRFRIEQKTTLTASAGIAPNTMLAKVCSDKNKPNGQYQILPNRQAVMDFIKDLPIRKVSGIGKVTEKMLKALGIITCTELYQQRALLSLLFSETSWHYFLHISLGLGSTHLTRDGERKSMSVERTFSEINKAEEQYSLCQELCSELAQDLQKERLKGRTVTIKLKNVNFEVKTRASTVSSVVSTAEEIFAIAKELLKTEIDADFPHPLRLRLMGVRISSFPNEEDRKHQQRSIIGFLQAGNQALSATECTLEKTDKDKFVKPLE
# Excerpt: Next, to elucidate the mechanism of inhibition, the extent of inhibition as a function of DNA template-primer or dNTP substrate concentrations was studied (Figure 4). In kinetic analysis, poly(dA)/oligo(dT)18 and dTTP were used as the DNA template-primer and dNTP substrate, respectively. […] When activated DNA and four dNTP substrates were used as the DNA template-primer and dNTP substrate, respectively, the inhibition of human pol κ by compound 1 was competitive with the DNA template-primer and non-competitive with the dNTP substrate (data not shown).
# Figure 4. Kinetic analysis of the inhibition of human pol κ by compound 1. (A) Human pol κ activity was measured in the absence (closed square) or presence of 4 μM (closed circle), 8 μM (closed triangle) or 12 μM (closed diamond) compound 1 using the indicated concentrations of the DNA template-primer. (B) Human pol κ activity was assayed with the indicated concentrations of the substrate dTTP in the presence of 4 μM (open circle), 8 μM (open triangle) or 12 μM (open diamond) or in the absence (open square) of compound 1. […] Amount of human pol κ in the assay mixture was 0.05 units.
# The reaction mixtures for pol α, pol β, plant pols and prokaryotic pols were described previously; those for pol γ, and pols δ and ɛ were as described by Umeda et al. and Ogawa et al., respectively. The reaction mixtures for pols η, ι and κ were the same as for pol α, and the reaction mixture for pol λ was the same as for pol β. For pols, poly(dA)/oligo(dT)18 (A/T = 2/1) and dTTP were used as the DNA template-primer and nucleotide (i.e., dNTP) substrate, respectively. For HIV-1 reverse transcriptase, poly(rA)/oligo(dT)18 (A/T = 2/1) and dTTP were used as the DNA template-primer and nucleotide substrate, respectively. For TdT, oligo(dT)18 (3′-OH) and dTTP were used as the DNA primer and nucleotide substrate, respectively.
# The compounds were dissolved in distilled dimethyl sulfoxide (DMSO) at various concentrations and sonicated for 30 sec. Aliquots of 4 μl sonicated samples were mixed with 16 μl of each enzyme (final amount 0.05 units) in 50 mM Tris-HCl (pH7.5) containing 1 mM dithiothreitol, 50% glycerol and 0.1 mM EDTA, and kept at 0 °C for 10 min. These inhibitor-enzyme mixtures (8 μl) were added to 16 μl of each of the enzyme standard reaction mixtures (final concentration of 50 mM Tris-HCl [pH 7.5], 1 mM dithiothreitol, 1 mM MgCl2, 15% glycerol, 10 μM poly(dA)/oligo(dT)18 and 10 μM [^3H]-dTTP), and incubation was carried out at 37 °C for 60 min, except for Taq pol, which was incubated at 74 °C for 60 min. Activity without the inhibitor was considered 100%, and the remaining activity at each concentration of the inhibitor was determined relative to this value. One unit of pol activity was defined as the amount of enzyme that catalyzed the incorporation of 1 nmol dNTP (i.e., dTTP) into synthetic DNA template-primers in 60 min at 37 °C under the normal reaction conditions for each enzyme.
structure (smiles),measurement,setting,value
"C/C=C/c1occ(C(=O)c2c(OC)cc(OC)cc2C(=O)OC)c(=O)c1OC [compound 1, 3-O-methylfunicone]",inhibiting clonogenic survival effect on UV exposed cells versus non-exposed cells,"UV-treated HeLa cells; 100 μM, HeLa, 7 days",4.3 fold
same,HeLa cell UV-sensitivity,UV-treated HeLa cells; 0 to 100 μM,significantly enhanced
same,effect on cell proliferation and growth,[1],did not influence
same,"increase in Michaelis constant (Km), DNA template-primer",human pol κ; 4 μM compound,295%
same,"increase in Michaelis constant (Km), DNA template-primer",human pol κ; 8 μM compound,467%
same,"increase in Michaelis constant (Km), DNA template-primer",human pol κ; 12 μM compound,812%
same,Vmax for the dNTP substrate,"human pol κ; 12 μM compound, decreased from 41.7 without compound",11.1 pmol/h
same,Ki,human pol κ; read-out: inhibition constant (Ki) for the DNA template-primer,1300 nM
same,Ki,human pol κ; read-out: inhibition constant (Ki) for the dTTP substrate,4400 nM
same,mode of inhibition with the DNA template-primer,"human pol κ; activated DNA as template-primer, data not shown",competitive
same,mode of inhibition with the dNTP substrate,"human pol κ; dTTP, double reciprocal plots",non-competitive
same,mode of inhibition with the dNTP substrate,"human pol κ; four dNTP substrates, data not shown",non-competitive
same,mode of inhibition with the DNA template-primer,"human pol κ; poly(dA)/oligo(dT)18, double reciprocal plots",competitive
same,"apparent maximum velocity (Vmax), DNA template-primer","human pol κ; unchanged in the presence of 4, 8 and 12 μM compound",52.6 pmol/h
